From patent US7534418B2, “Imaging agents” (The Regents of the University of Michigan, priority 2004, dated 2009)
Entries after “also recorded” stand apart in the source; their conditions may differ.

Test system: cardiac sympathetic neurons of the isolated rat heart
Experiment: Kinetics of [11C]phenethylguanidines in isolated perfused working rat heart (neuronal uptake and clearance)
Settings: for half-life / Major Clearance Rate T1/2: rat
Excerpt: To evaluate radiolabeled phenethylguanidines as imaging agents for nuclear medicine, several [^11C]-labeled phenethylguanidines were synthesized and initial bioevaluations of these compounds performed using an isolated rat heart preparation. […] [^11C]-labeling was used to initially assess the imaging properties of these compounds for the following reasons. A radiosynthetic method for making [^11C]guanidines (see, e.g., Westerberg, G. and Langstrom, B. (1997) J. Labeled Compds. Radiopharm. 39:525-529; herein incorporated by reference in its entirety), allowed efficient synthesis and evaluation of these compounds.
The present invention is not limited to a particular mechanism. Indeed, an understanding of the mechanism is not necessary to practice the present invention. […] Provided below is a detailed description of how these specific kinetic properties offer a significant advantage over currently available sympathetic nerve radiotracers.

| Major Clearance Rate T1/2 | Molecule | Neuronal Uptake Rate Kup (isolated rat heart) [mL/min/g] | neuronal retention / clearance (in words) (isolated rat heart) | also measured |
| --- | --- | --- | --- | --- |
| 1.93 h | N=[11C](N)NCCc1cccc(F)c1 [II-1, [^11C]meta-fluorophenethylguanidine] | 0.24 | – | – |
| 4.43 h | N=[11C](N)NCCc1ccc(F)cc1 [II-2, [^11C]para-fluorophenethylguanidine] | 0.63 | – | – |
| 2.25 h | N=[11C](N)NCCc1ccccc1F [II-3, [^11C]ortho-fluorophenethylguanidine] | 1.76 | – | – |
| trapped | N=[11C](N)NCCc1ccc(F)c(O)c1 [II-4, [^11C]para-fluoro-meta-hydroxy-phenethylguanidine] | 0.77 | very long neuronal retention times | – |
| 20.12 h | N=[11C](N)NCCc1cc(O)ccc1F [II-5, [^11C]ortho-fluoro-meta-hydroxy-phenethylguanidine] | 0.54 | very long neuronal retention times | – |
| 2.38 h | N=[11C](N)NCCc1cccc(I)c1 [III-1, [^11C]meta-iodophenethylguanidine] | 1.10 | approximately the same rate as MIBG | neuronal uptake rate, times slower than MIBG (isolated rat heart, relative to MIBG): around 3 times |

Second part, the molecule before the results:

| Molecule | Major Clearance Rate T1/2 | Neuronal Uptake Rate Kup (isolated rat heart) [mL/min/g] | neuronal retention / clearance (in words) (isolated rat heart) | also measured |
| --- | --- | --- | --- | --- |
| 2-[^18F]fluoro-2-deoxy-D-glucose [FDG, reference compound] | – | – | – | myocardial uptake rate (isolated rat heart, 10 mM glucose, no insulin, 10 min constant infusion, FIG. 5): 0.31 ml/min/g wet |
| CNC[C@H](O)c1ccc(O)c(O)c1 [EPI, [^11C]epinephrine, reference compound] | – | 0.60 | – | half-life: 26.3 h |
| C[C@H](N[11CH3])[C@H](O)c1cccc(O)c1 [HED, [^11C]meta-hydroxyephedrine, reference compound] | – | 2.35 | – | – |
| N=[11C](N)NCCc1ccccc1 [I-1, [^11C]phenethylguanidine] | 3.33 h | 1.56 | – | – |
| N=[11C](N)NC[C@H](O)c1ccccc1 [I-2, [^11C](−)-β-hydroxyphenethylguanidine] | 19.3 h | 0.42 | – | – |
| COc1ccc(CCN[11C](=N)N)cc1 [I-3, [^11C]para-methoxy-phenethylguanidine] | 2.28 h | 0.73 | – | – |
| N=[11C](N)NCCc1cccc(O)c1 [I-4, [^11C]meta-hydroxyphenethylguanidine] | trapped | 2.12 | efficient vesicular storage; also recorded: very long retention times | neuronal uptake rate (in words) (isolated rat heart): fast and rapid |
| N=[11C](N)NCCc1ccc(O)cc1 [I-5, [^11C]para-hydroxyphenethylguanidine] | 48.13 h | 1.92 | efficient vesicular storage; also recorded: very long retention times | neuronal uptake rate (in words) (isolated rat heart): fast and rapid; neuronal retention / clearance (in words) (isolated rat heart, listed as PHPG): well retained |
| N=[11C](N)NCCc1ccc(O)c(O)c1 [I-6, [^11C]3,4-dihydroxyphenethylguanidine] | 23.52 h | 1.07 | – | – |
| N=[11C](N)NCC(O)c1cccc(O)c1 (stereo not drawn) [I-7, N-[^11C]guanyl-meta-octopamine] | 216.67 h | 0.28 | very long neuronal retention times | neuronal uptake rate (in words) (isolated rat heart): slow and slower than all currently used tracers; neuronal uptake rate (isolated rat heart, 10 min constant infusion, FIG. 5): 0.28 ml/min/g wet; neuronal retention / clearance (in words) (isolated rat heart, listed as GMO): well retained; also recorded: neuronal trapping of GMO is more efficient than the myocardial trapping of FDG |
| N=[11C](N)NC[C@H](O)c1ccc(O)c(O)c1 [I-8, N-[^11C]guanyl-norepinephrine] | – | 0.09 | – | – |
| C[C@H](N[11C](=N)N)[C@H](O)c1cccc(O)c1 [I-9, N-[^11C]guanyl-(−)-metaraminol] | 20.18 h | 0.08 | very long neuronal retention times | neuronal uptake rate (in words) (isolated rat heart): slow and slower than all currently used tracers |
| NC(N)=NCc1cccc(I)c1 [MIBG, [^11C]meta-iodobenzylguanidine, reference compound] | – | 3.65 | – | neuronal uptake rate (in words) (isolated rat heart): very rapid |
| NC[C@H](O)c1ccc(O)c(O)c1 [NE, [^3H]norepinephrine, reference compound] | – | 4.44 | – | half-life: > 16.7 h |
| CNC[C@H](O)c1cccc(O)c1 [PHEN, [^11C]phenylephrine, reference compound] | – | 0.72 | – | half-life: 1.63 h |
